From publication PMC10786919, “Design-rules for stapled peptides with in vivo activity and their application to Mdm2/X antagonists” (Nature Communications, 2024)
In brackets after ≈: the same amount, converted by molar mass. Where two headings read alike, the source gives them in different places. Positions of bridges follow the written chain, without caps; N, C: chain ends. Non-standard residues stand in square brackets, D forms with d. Residues, ends and D or L forms follow the SMILES beside them. Lys(N3) = [N-]=[N+]=NCCCC[C@H](N)C(=O)O; R8 = C=CCCCCCC[C@@](C)(N)C(=O)O; Cba = N[C@@H](CC1CCC1)C(=O)O; S5 = C=CCCC[C@](C)(N)C(=O)O; βAla = NCCC(=O)O

Experiments:
[1] = Lactate dehydrogenase (LDH) release assay; format: cell-based
In short: (§1)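 A p53 β-lactamase reporter HCT116 line, 8000 cells per well, is exposed to test compounds at 0.5% final DMSO and scored for LDH leakage.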

HCT116 cells = test: Lactate dehydrogenase (LDH) release assay; format: cell-based
In short: as §1

[2] = Solubility assay (kinetic solubility, PBS pH 7); format: physicochemical; details: for solubility kinetic: pH 7, aqueous buffer, kinetic from dmso stock, read-out: Solubility
In short: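 Quantitation uses an external standard at 100 µM, prepared from 10 mM stock in acetonitrile:methanol:DMSO (10:80:10). Solubility (µM) = (peak area of sample ÷ peak area of standard) × standard concentration.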

[3] = Nanoclick permeability assay
In short: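 Azido-peptide permeability was read as loss of NanoBRET signal (donor 450 nm, acceptor 610 nm) after adding NanoBret618-azide at 10 μM final.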

[4] = Experimental LogD (partition coefficient); details: for logD: not stated, Partition Coeff LogD
[5] = 0% FBS 4Hr, read-out: LDH: Cytotoxicity assay EC50
[6] = 10% FBS 4Hr, read-out: LDH: Cytotoxicity assay EC50

Row | Structure (SMILES) | EC50 [1, 5] | LDH: Cytotoxicity assay % Effect (HCT116 cells; 0% FBS 4Hr) | LDH: Cytotoxicity assay % Effect (HCT116 cells; 0% FBS 16Hr) | solubility kinetic ([2]; pH 7, PBS) | cell entry EC50 [3] | EPSA (physchem) | logD [4] | EC50 [1, 6] | LDH: Cytotoxicity assay % Effect (HCT116 cells; 10% FBS 4Hr) | Solubility [2] | Solubility ([2]; pH 7, PBS) | Partition Coeff LogD [4] | Partition Coeff LogD ([4]; experimental) | EC50 ([1]; 4 hours, 0% serum, read-out: LDH Cytotoxicity assay EC50)
1 | CC(=O)N[C@@H](CCCCN=[N+]=[N-])C(=O)NCCC(=O)N[C@@H](CC(C)C)C(=O)N[C@@H](C)C(=O)N[C@@H](Cc1ccccc1)C(=O)N[C@]1(C)CCCCCCC=CCCC[C@@](C)(C(=O)N[C@@H](CO)C(=O)N[C@@H](C)C(=O)N[C@@H](C)C(N)=O)NC(=O)[C@H](CC2CCC2)NC(=O)[C@H](CCC(N)=O)NC(=O)[C@H](C)NC(=O)[C@H](Cc2c[nH]c3ccccc23)NC(=O)[C@H](Cc2ccc(O)cc2)NC(=O)[C@H](CCC(=O)O)NC1=O [MP-953, AZIDE-ATSP-7041 (T2A)] (Ac-[Lys(N3)][βAla]LAF[R8]EYWAQ[Cba][S5]SAA-NH2; staple 6-13) | > 50000 nM | 11.05% | -0.16% | 186 µM (≈ 361 µg/mL) | 494 nM | 221 A^2 | 2.93 |  |  |  |  |  |  | 
2 | CC(=O)N[C@@H](CCCCN=[N+]=[N-])C(=O)NCCC(=O)N[C@@H](C)C(=O)N[C@H](C(=O)N[C@@H](Cc1ccccc1)C(=O)N[C@]1(C)CCCCCCC=CCCC[C@@](C)(C(=O)N[C@@H](CO)C(=O)N[C@@H](C)C(=O)N[C@@H](C)C(N)=O)NC(=O)[C@H](CC2CCC2)NC(=O)[C@H](CCC(N)=O)NC(=O)[C@H](C)NC(=O)[C@H](Cc2c[nH]c3ccccc23)NC(=O)[C@H](Cc2ccc(O)cc2)NC(=O)[C@H](C)NC1=O)[C@@H](C)O [MP-958, AZIDE-ATSP-7041 (L1A,E5A)] (Ac-[Lys(N3)][βAla]ATF[R8]AYWAQ[Cba][S5]SAA-NH2; staple 6-13) | > 50000 nM | 13.33% | 4.88% | 5 µM (≈ 9.35 µg/mL) | 333 nM | 207 A^2 | 3.13 |  |  |  |  |  |  | 
3 | CC(=O)N[C@@H](CCCCN=[N+]=[N-])C(=O)NCCC(=O)N[C@@H](CC(C)C)C(=O)N[C@H](C(=O)N[C@@H](Cc1ccccc1)C(=O)N[C@]1(C)CCCCCCC=CCCC[C@@](C)(C(=O)N[C@@H](CCCCN)C(=O)N[C@@H](C)C(=O)N[C@@H](C)C(N)=O)NC(=O)[C@H](CC2CCC2)NC(=O)[C@H](CCC(N)=O)NC(=O)[C@H](C)NC(=O)[C@H](Cc2c[nH]c3ccccc23)NC(=O)[C@H](Cc2ccc(O)cc2)NC(=O)[C@H](CCC(=O)O)NC1=O)[C@@H](C)O [MP-551, AZIDE-ATSP-7041 (S12K)] (Ac-[Lys(N3)][βAla]LTF[R8]EYWAQ[Cba][S5]KAA-NH2; staple 6-13) | > 50000 nM | 3.03% | -1.59% | 2 µM (≈ 4.02 µg/mL) | 253 nM | 216 A^2 | 2.83 |  |  |  |  |  |  | 
4 | CC(=O)N[C@@H](CCCCN=[N+]=[N-])C(=O)NCCC(=O)N[C@@H](CC(C)C)C(=O)N[C@H](C(=O)N[C@@H](Cc1ccccc1)C(=O)N[C@]1(C)CCCCCCC=CCCC[C@@](C)(C(=O)N[C@@H](CO)C(=O)N[C@@H](C)C(=O)N[C@@H](C)C(N)=O)NC(=O)[C@H](CC2CCC2)NC(=O)[C@H](C)NC(=O)[C@H](C)NC(=O)[C@H](Cc2c[nH]c3ccccc23)NC(=O)[C@H](Cc2ccc(O)cc2)NC(=O)[C@H](CCC(=O)O)NC1=O)[C@@H](C)O [MP-955, AZIDE-ATSP-7041 (Q9A)] (Ac-[Lys(N3)][βAla]LTF[R8]EYWAA[Cba][S5]SAA-NH2; staple 6-13) | > 50000 nM | 21.34% |  | 86.5 µM (≈ 165 µg/mL) | 582 nM | 215 A^2 | 2.94 | > 50000 nM | -4.376% |  |  |  |  | 
5 | CC(=O)N[C@@H](CCCCN=[N+]=[N-])C(=O)NCCC(=O)N[C@@H](CC(C)C)C(=O)N[C@@H](C)C(=O)N[C@@H](Cc1ccccc1)C(=O)N[C@]1(C)CCCCCCC=CCCC[C@@](C)(C(=O)N[C@@H](CO)C(=O)N[C@@H](C)C(=O)N[C@@H](C)C(N)=O)NC(=O)[C@H](CC2CCC2)NC(=O)[C@H](CCC(N)=O)NC(=O)[C@H](C)NC(=O)[C@H](Cc2c[nH]c3ccccc23)NC(=O)[C@H](Cc2ccc(O)cc2)NC(=O)[C@H](C)NC1=O [MP-961, AZIDE-ATSP-7041 (T2A,E5A)] (Ac-[Lys(N3)][βAla]LAF[R8]AYWAQ[Cba][S5]SAA-NH2; staple 6-13) | > 50000 nM | 4.443% |  |  | 272 nM | 206 A^2 |  |  |  | P.B. | Poorly Behaved | Poorly Behaved | P.B. | 
6 | CC(=O)N[C@@H](CCCCN=[N+]=[N-])C(=O)NCCC(=O)N[C@@H](CC(C)C)C(=O)N[C@H](C(=O)N[C@@H](Cc1ccccc1)C(=O)N[C@]1(C)CCCCCCC=CCCC[C@@](C)(C(=O)N[C@@H](CO)C(=O)N[C@@H](C)C(=O)N[C@@H](C)C(N)=O)NC(=O)[C@H](CC2CCC2)NC(=O)[C@H](CCC(N)=O)NC(=O)[C@H](C)NC(=O)[C@H](Cc2c[nH]c3ccccc23)NC(=O)[C@H](Cc2ccc(O)cc2)NC(=O)[C@H](Cc2c[nH]cn2)NC1=O)[C@@H](C)O [MP-175, AZIDE-ATSP-7041 (E5H)] | > 50000 nM | 2.645% | 7.95% | 2 µM (≈ 3.96 µg/mL) | 316 nM | 214 A^2 | 3.42 | > 50000 nM | -1.124% |  |  |  |  | 
7 | CC(=O)N[C@@H](CCCCN=[N+]=[N-])C(=O)NCCC(=O)N[C@@H](CC(C)C)C(=O)N[C@@H](CCCCN)C(=O)N[C@@H](Cc1ccccc1)C(=O)N[C@]1(C)CCCCCCC=CCCC[C@@](C)(C(=O)N[C@@H](CO)C(=O)N[C@@H](C)C(=O)N[C@@H](C)C(N)=O)NC(=O)[C@H](CC2CCC2)NC(=O)[C@H](CCC(N)=O)NC(=O)[C@H](C)NC(=O)[C@H](Cc2c[nH]c3ccccc23)NC(=O)[C@H](Cc2ccc(O)cc2)NC(=O)[C@H](CCC(=O)O)NC1=O [MP-547, AZIDE-ATSP-7041 (T2K)] | > 50000 nM | 26.9% | 15.73% | 3 µM (≈ 5.99 µg/mL) | 72.2 nM | 229 A^2 | 3.02 |  |  |  |  |  |  | 
8 | CC(=O)N[C@@H](CCCCN=[N+]=[N-])C(=O)NCCC(=O)N[C@@H](C)C(=O)N[C@@H](C)C(=O)N[C@@H](Cc1ccccc1)C(=O)N[C@]1(C)CCCCCCC=CCCC[C@@](C)(C(=O)N[C@@H](CO)C(=O)N[C@@H](C)C(=O)N[C@@H](C)C(N)=O)NC(=O)[C@H](CC2CCC2)NC(=O)[C@H](CCC(N)=O)NC(=O)[C@H](C)NC(=O)[C@H](Cc2c[nH]c3ccccc23)NC(=O)[C@H](Cc2ccc(O)cc2)NC(=O)[C@H](CCC(=O)O)NC1=O [MP-957, AZIDE-ATSP-7041 (L1A,T2A)] (Ac-[Lys(N3)][βAla]AAF[R8]EYWAQ[Cba][S5]SAA-NH2; staple 6-13) | 17100 nM | 25.16% |  | 101 µM (≈ 192 µg/mL) | 125 nM | 226 A^2 | 2.69 |  |  |  |  |  |  | 17100 nM
9 | CC(=O)N[C@@H](CCCCN=[N+]=[N-])C(=O)NCCC(=O)N[C@@H](CC(C)C)C(=O)N[C@H](C(=O)N[C@@H](Cc1ccccc1)C(=O)N[C@]1(C)CCCCCCC=CCCC[C@@](C)(C(=O)N[C@@H](C)C(=O)N[C@@H](C)C(=O)N[C@@H](C)C(N)=O)NC(=O)[C@H](CC2CCC2)NC(=O)[C@H](C)NC(=O)[C@H](C)NC(=O)[C@H](Cc2c[nH]c3ccccc23)NC(=O)[C@H](Cc2ccc(O)cc2)NC(=O)[C@H](CCC(=O)O)NC1=O)[C@@H](C)O [MP-8966, AZIDE-ATSP-7041 (Q9A,S12A)] (Ac-[Lys(N3)][βAla]LTF[R8]EYWAA[Cba][S5]AAA-NH2; staple 6-13) | > 50000 nM | 5.4% |  | 111 µM (≈ 211 µg/mL) | 202 nM | 215 A^2 | 2.92 | > 50000 nM | 4.079% |  |  |  |  | 
10 | CC(=O)N[C@@H](CCCCN=[N+]=[N-])C(=O)NCCC(=O)N[C@@H](CC(C)C)C(=O)N[C@H](C(=O)N[C@@H](Cc1ccccc1)C(=O)N[C@]1(C)CCCCCCC=CCCC[C@@](C)(C(=O)N[C@@H](Cc2c[nH]cn2)C(=O)N[C@@H](C)C(=O)N[C@@H](C)C(N)=O)NC(=O)[C@H](CC2CCC2)NC(=O)[C@H](CCC(N)=O)NC(=O)[C@H](C)NC(=O)[C@H](Cc2c[nH]c3ccccc23)NC(=O)[C@H](Cc2ccc(O)cc2)NC(=O)[C@H](CCC(=O)O)NC1=O)[C@@H](C)O [MP-177, AZIDE-ATSP-7041 (S12H)] (Ac-[Lys(N3)][βAla]LTF[R8]EYWAQ[Cba][S5]HAA-NH2; staple 6-13) | > 50000 nM | 4.985% |  | 6.5 µM (≈ 13.1 µg/mL) | 149 nM | 227 A^2 | 2.74 |  |  |  |  |  |  | 
